{
  "source": "patent US6355799B1",
  "about": "“Substituted benzene compounds, process for their preparation, and herbicidal and defoliant compositions containing them” (ISK Americas Incorporated, priority 1997, dated 2002)",
  "assay_type_in_all_cases": "in vivo",
  "key": {"[1]": {"tested_on": "upland rice (Oryza sp., var. Tebonnet, RICE)", "assay": "Pre-emerge test, crop safety", "settings": "pre-emerge, rated 14 days after application, 0 = no damage, 100 = complete death", "procedure,_shortened": "(§1)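 Applied at 15–1000 g ai/ha from acetone in 187 l/ha spray volume. Post-emergence applications included 0.25% v/v non-ionic surfactant and reached plants sown 8–21 days before. Pre-emergence applications were incorporated by surface watering. Efficacy or crop damage was rated on a 0–100 scale after 14 days.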"}, "[2]": {"tested_on": "field corn (Zea mays L., var. Dekalb 535, CORN)", "assay": "Pre-emerge test, crop safety", "settings": "pre-emerge, rated 14 days after application, 0 = no damage, 100 = complete death", "procedure,_shortened": "as §1"}, "[3]": {"tested_on": "velvetleaf (Abutilon theophrasti, ABUTH)", "assay": "Post-emerge test, greenhouse herbicide activity screening", "settings": "phytotoxicity rating 0-100 (0 no damage, 100 complete death), 14 days after application", "procedure,_shortened": "(§2)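 Visual ratings on a 0-100 scale (0 no damage, 100 all plants dead) were taken at 14 days after treatment. Rates of 15-1000 g ai/ha in acetone, 187 l/ha, were sprayed onto soil one day after planting (pre-emerge) or onto 2-3 leaf plants with 0.25% v/v surfactant (post-emerge).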"}, "[4]": {"tested_on": "redroot pigweed (Amaranthus retroflexus, AMARE)", "assay": "Post-emerge test, greenhouse herbicide activity screening", "settings": "phytotoxicity rating 0-100 (0 no damage, 100 complete death), 14 days after application", "procedure,_shortened": "as §2"}, "[5]": {"tested_on": "johnsongrass (Sorghum halepense, SORHA)", "assay": "Post-emerge test, greenhouse herbicide activity screening", "settings": "phytotoxicity rating 0-100 (0 no damage, 100 complete death), 14 days after application", "procedure,_shortened": "as §2"}, "[6]": {"tested_on": "green foxtail (Setaria viridis, SETVI)", "assay": "Post-emerge test, greenhouse herbicide activity screening", "settings": "phytotoxicity rating 0-100 (0 no damage, 100 complete death), 14 days after application", "procedure,_shortened": "as §2"}, "[7]": {"tested_on": "lambsquarters (Chenopodium album, CHEAL)", "assay": "Post-emerge test, greenhouse herbicide activity screening", "settings": "phytotoxicity rating 0-100 (0 no damage, 100 complete death), 14 days after application", "procedure,_shortened": "as §2"}, "[8]": {"tested_on": "sicklepod (Cassia obtusifolia, CASOB)", "assay": "Post-emerge test, greenhouse herbicide activity screening", "settings": "phytotoxicity rating 0-100 (0 no damage, 100 complete death), 14 days after application", "procedure,_shortened": "as §2"}, "[9]": {"tested_on": "common ragweed (Ambrosia artemisizfolia L., AMBEL)", "assay": "Post-emerge test, greenhouse herbicide activity screening", "settings": "phytotoxicity rating 0-100 (0 no damage, 100 complete death), 14 days after application", "procedure,_shortened": "as §2"}, "[10]": {"tested_on": "ivyleaf morningglory (Ipomoea hederacea, IPOHE)", "assay": "Post-emerge test, greenhouse herbicide activity screening", "settings": "phytotoxicity rating 0-100 (0 no damage, 100 complete death), 14 days after application", "procedure,_shortened": "as §2"}, "[11]": {"tested_on": "large crabgrass (Digitaria sanguinalis, DIGSA)", "assay": "Post-emerge test, greenhouse herbicide activity screening", "settings": "phytotoxicity rating 0-100 (0 no damage, 100 complete death), 14 days after application", "procedure,_shortened": "as §2"}, "[12]": {"tested_on": "barnyardgrass (Echinochloa crus-galli, ECHCG)", "assay": "Post-emerge test, greenhouse herbicide activity screening", "settings": "phytotoxicity rating 0-100 (0 no damage, 100 complete death), 14 days after application", "procedure,_shortened": "as §2"}, "[13]": {"tested_on": "velvetleaf (Abutilon theophrasti, ABUTH)", "assay": "Pre-emerge test, greenhouse herbicide activity screening", "settings": "pre-emerge, rated 14 days after application, 0 = no damage, 100 = complete death", "procedure,_shortened": "(§3)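 Plants grown in 10 cm pots of sandy loam mix received acetone-dissolved compounds through a moving flat-fan nozzle. Doses ranged from 15 to 1000 g ai/ha. Pre-emerge pots were seeded one day earlier, post-emerge pots 8–21 days earlier. Fourteen days on, each pot was graded 0–100 for damage.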"}, "[14]": {"tested_on": "johnsongrass (Sorghum halepense, SORHA)", "assay": "Pre-emerge test, greenhouse herbicide activity screening", "settings": "pre-emerge, rated 14 days after application, 0 = no damage, 100 = complete death", "procedure,_shortened": "as §3"}, "[15]": {"tested_on": "green foxtail (Setaria viridis, SETVI)", "assay": "Pre-emerge test, greenhouse herbicide activity screening", "settings": "pre-emerge, rated 14 days after application, 0 = no damage, 100 = complete death", "procedure,_shortened": "as §3"}, "[16]": {"tested_on": "lambsquarters (Chenopodium album, CHEAL)", "assay": "Pre-emerge test, greenhouse herbicide activity screening", "settings": "pre-emerge, rated 14 days after application, 0 = no damage, 100 = complete death", "procedure,_shortened": "as §3"}, "[17]": {"tested_on": "sicklepod (Cassia obtusifolia, CASOB)", "assay": "Pre-emerge test, greenhouse herbicide activity screening", "settings": "pre-emerge, rated 14 days after application, 0 = no damage, 100 = complete death", "procedure,_shortened": "as §3"}, "[18]": {"tested_on": "ivyleaf morningglory (Ipomoea hederacea, IPOHE)", "assay": "Pre-emerge test, greenhouse herbicide activity screening", "settings": "pre-emerge, rated 14 days after application, 0 = no damage, 100 = complete death", "procedure,_shortened": "as §3"}, "[19]": {"tested_on": "large crabgrass (Digitaria sanguinalis, DIGSA)", "assay": "Pre-emerge test, greenhouse herbicide activity screening", "settings": "pre-emerge, rated 14 days after application, 0 = no damage, 100 = complete death", "procedure,_shortened": "as §3"}, "[20]": {"tested_on": "barnyardgrass (Echinochloa crus-galli, ECHCG)", "assay": "Pre-emerge test, greenhouse herbicide activity screening", "settings": "pre-emerge, rated 14 days after application, 0 = no damage, 100 = complete death", "procedure,_shortened": "as §3"}, "[21]": {"tested_on": "upland rice (Oryza sp., var. Tebonnet, RICE)", "assay": "Post-emerge test, crop safety", "settings": "phytotoxicity rating 0-100 (0 no damage, 100 complete death), 14 days after application", "procedure,_shortened": "(§4)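 Each test used a mechanized track sprayer delivering 187 l/ha of acetone solution at 15–1000 g ai/ha. Post-emerge foliage at 2–3 leaves was treated with added 0.25% v/v non-ionic surfactant and bottom-watered only. Injury was assessed on day 14, where 100 means total kill.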"}, "[22]": {"tested_on": "field corn (Zea mays L., var. Dekalb 535, CORN)", "assay": "Post-emerge test, crop safety", "settings": "phytotoxicity rating 0-100 (0 no damage, 100 complete death), 14 days after application", "procedure,_shortened": "as §4"}, "[23]": {"tested_on": "redroot pigweed (Amaranthus retroflexus, AMARE)", "assay": "Pre-emerge test, greenhouse herbicide activity screening", "settings": "pre-emerge, rated 14 days after application, 0 = no damage, 100 = complete death", "procedure,_shortened": "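Rating: 0–100 visual injury, 14 DAA. Application: acetone, 187 l/ha, 15–1000 g ai/ha, flat-fan track sprayer with nozzle 40–45 cm above soil or canopy. Post-emerge runs used 0.25% v/v surfactant on 2–3 leaf plants.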"}},
  "data": [
    {"smiles": "CCn1c(C(F)(F)F)cc(=O)n(-c2c(F)cc(Cl)c(OC)c2N)c1=O", "note": "[Compound 1-15]", "values": [
      {"measurement": "Pre-emerge crop damage RICE (phytotoxicity rating, scale 0-100)", "setting": "[1]; 63 g ai/ha", "value": 10},
      {"measurement": "Pre-emerge crop damage RICE (phytotoxicity rating, scale 0-100)", "setting": "[1]; 250 g ai/ha", "value": 30},
      {"measurement": "Pre-emerge crop damage CORN (phytotoxicity rating, scale 0-100)", "setting": "[2]; 63 g ai/ha", "value": 0},
      {"measurement": "Pre-emerge crop damage CORN (phytotoxicity rating, scale 0-100)", "setting": "[2]; 250 g ai/ha", "value": 0},
      {"measurement": "Post-emerge Herbicidal Activity ABUTH", "setting": "[3]; 63 g ai/ha", "value": 30},
      {"measurement": "Post-emerge Herbicidal Activity ABUTH", "setting": "[3]; 250 g ai/ha", "value": 50},
      {"measurement": "Post-emerge Herbicidal Activity AMARE", "setting": "[4]; 63 g ai/ha", "value": 0},
      {"measurement": "Post-emerge Herbicidal Activity AMARE", "setting": "[4]; 250 g ai/ha", "value": 30},
      {"measurement": "Post-emerge Herbicidal Activity SORHA", "setting": "[5]; 63 g ai/ha", "value": 0},
      {"measurement": "Post-emerge Herbicidal Activity SORHA", "setting": "[5]; 250 g ai/ha", "value": 0},
      {"measurement": "Post-emerge Herbicidal Activity SETVI", "setting": "[6]; 63 g ai/ha", "value": 0},
      {"measurement": "Post-emerge Herbicidal Activity SETVI", "setting": "[6]; 250 g ai/ha", "value": 0},
      {"measurement": "Post-emerge Herbicidal Activity CHEAL", "setting": "[7]; 63 g ai/ha", "value": 0},
      {"measurement": "Post-emerge Herbicidal Activity CHEAL", "setting": "[7]; 250 g ai/ha", "value": 20},
      {"measurement": "Post-emerge Herbicidal Activity CASOB", "setting": "[8]; 63 g ai/ha", "value": 0},
      {"measurement": "Post-emerge Herbicidal Activity CASOB", "setting": "[8]; 250 g ai/ha", "value": 0},
      {"measurement": "Post-emerge Herbicidal Activity AMBEL", "setting": "[9]; 63 g ai/ha", "value": 0},
      {"measurement": "Post-emerge Herbicidal Activity AMBEL", "setting": "[9]; 250 g ai/ha", "value": 0},
      {"measurement": "Post-emerge Herbicidal Activity IPOHE", "setting": "[10]; 63 g ai/ha", "value": 0},
      {"measurement": "Post-emerge Herbicidal Activity IPOHE", "setting": "[10]; 250 g ai/ha", "value": 40},
      {"measurement": "Post-emerge Herbicidal Activity DIGSA", "setting": "[11]; 63 g ai/ha", "value": 0},
      {"measurement": "Post-emerge Herbicidal Activity DIGSA", "setting": "[11]; 250 g ai/ha", "value": 0},
      {"measurement": "Post-emerge Herbicidal Activity ECHCG", "setting": "[12]; 63 g ai/ha", "value": 0},
      {"measurement": "Post-emerge Herbicidal Activity ECHCG", "setting": "[12]; 250 g ai/ha", "value": 0},
      {"measurement": "Pre-emerge Herbicidal Activity ABUTH (phytotoxicity rating, scale 0-100)", "setting": "[13]; 63 g ai/ha", "value": 20},
      {"measurement": "Pre-emerge Herbicidal Activity ABUTH (phytotoxicity rating, scale 0-100)", "setting": "[13]; 250 g ai/ha", "value": 90},
      {"measurement": "Pre-emerge Herbicidal Activity SORHA (phytotoxicity rating, scale 0-100)", "setting": "[14]; 63 g ai/ha", "value": 0},
      {"measurement": "Pre-emerge Herbicidal Activity SORHA (phytotoxicity rating, scale 0-100)", "setting": "[14]; 250 g ai/ha", "value": 20},
      {"measurement": "Pre-emerge Herbicidal Activity SETVI (phytotoxicity rating, scale 0-100)", "setting": "[15]; 63 g ai/ha", "value": 70},
      {"measurement": "Pre-emerge Herbicidal Activity SETVI (phytotoxicity rating, scale 0-100)", "setting": "[15]; 250 g ai/ha", "value": 80},
      {"measurement": "Pre-emerge Herbicidal Activity CHEAL (phytotoxicity rating, scale 0-100)", "setting": "[16]; 63 g ai/ha", "value": 40},
      {"measurement": "Pre-emerge Herbicidal Activity CHEAL (phytotoxicity rating, scale 0-100)", "setting": "[16]; 250 g ai/ha", "value": 50},
      {"measurement": "Pre-emerge Herbicidal Activity CASOB (phytotoxicity rating, scale 0-100)", "setting": "[17]; 63 g ai/ha", "value": 0},
      {"measurement": "Pre-emerge Herbicidal Activity CASOB (phytotoxicity rating, scale 0-100)", "setting": "[17]; 250 g ai/ha", "value": 0},
      {"measurement": "Pre-emerge Herbicidal Activity IPOHE (phytotoxicity rating, scale 0-100)", "setting": "[18]; 63 g ai/ha", "value": 0},
      {"measurement": "Pre-emerge Herbicidal Activity IPOHE (phytotoxicity rating, scale 0-100)", "setting": "[18]; 250 g ai/ha", "value": 0},
      {"measurement": "Pre-emerge Herbicidal Activity DIGSA (phytotoxicity rating, scale 0-100)", "setting": "[19]; 63 g ai/ha", "value": 0},
      {"measurement": "Pre-emerge Herbicidal Activity DIGSA (phytotoxicity rating, scale 0-100)", "setting": "[19]; 250 g ai/ha", "value": 90},
      {"measurement": "Pre-emerge Herbicidal Activity ECHCG (phytotoxicity rating, scale 0-100)", "setting": "[20]; 63 g ai/ha", "value": 0},
      {"measurement": "Pre-emerge Herbicidal Activity ECHCG (phytotoxicity rating, scale 0-100)", "setting": "[20]; 250 g ai/ha", "value": 0},
      {"measurement": "Post-emerge Herbicidal Activity RICE (crop damage)", "setting": "[21]; 63 g ai/ha", "value": 0},
      {"measurement": "Post-emerge Herbicidal Activity RICE (crop damage)", "setting": "[21]; 250 g ai/ha", "value": 0},
      {"measurement": "Post-emerge Herbicidal Activity CORN (crop damage)", "setting": "[22]; 63 g ai/ha", "value": 0},
      {"measurement": "Post-emerge Herbicidal Activity CORN (crop damage)", "setting": "[22]; 250 g ai/ha", "value": 0},
      {"measurement": "Pre-emerge Herbicidal Activity AMARE (phytotoxicity rating, scale 0-100)", "setting": "[23]; 63 g ai/ha", "value": 0},
      {"measurement": "Pre-emerge Herbicidal Activity AMARE (phytotoxicity rating, scale 0-100)", "setting": "[23]; 250 g ai/ha", "value": 20}
    ]}
  ]
}
